Two compounds from patent US11911497B2, “Rebaudioside E and food products sweetened with rebaudioside E” (Conagen Inc., priority 2013, dated 2024) can be followed below.

Test [1] is described as follows: Standard sweetness test, panelists rate sweetness (Brix) of solutions in water. On the set-up: species or system human. To be noted: for Brix (average): average of all panelists. On the procedure: (§1) A standard sweetness test method was employed. Briefly, training sample solutions made of sucrose in water at 1-5% concentration (Brix) at 1% increments were prepared. Reb-E test samples were made of Reb-E in water at 20-60 ppm (parts per million). Panelists were trained to recognize and differentiate between each training solution. Three test solutions of known sucrose concentrations were given to panelists to ensure equal training and to establish a baseline.
(§2) Test solutions were randomized using a random number generator. Two sets of tests were generated for each panelist. Saltine crackers were provided along with water for wash out between test solutions. Each panelist rated each of the solutions according to sweetness (in Brix) and sourness (yes or no). The intensity of each attribute was also collected.

A short description of test [2]: Sourness test, panelists detect presence of sourness by yes or no rating. On the set-up: species or system human. On the procedure: as §1, §2
The ability of Reb-E to overcome sourness was also measured, and compared to sucrose. Panelists were asked to detect the presence of sourness by a yes or no rating.

[3] abbreviates: Reb-E 20 PPM + 0.6% citric acid.
The mark [4] stands for this setting: Reb-E 40 PPM + 0.6% citric acid.
[5] abbreviates: Reb-E 50 PPM + 0.6% citric acid.
Where [6] appears, read: Reb-E 60 PPM + 0.6% citric acid.
[7] abbreviates: sucrose 10 ×1000 PPM (1%) + 0.6% citric acid.
Setting [8] is: sucrose 20 ×1000 PPM (2%) + 0.6% citric acid.
Setting [9] is: sucrose 30 ×1000 PPM (3%) + 0.6% citric acid.
Setting [10] is: sucrose 40 ×1000 PPM (4%) + 0.6% citric acid.

Molecules are shown by their SMILES.

For the compound `C=C1C[C@@]23CCC4[C@](C)(C(=O)OC5OC(CO)C(O)C(O)C5OC5OC(CO)C(O)C(O)C5O)CCC[C@@]4(C)[C@@H]2CCC1(OC1OC(CO)C(O)C(O)C1OC1OC(CO)C(O)C(O)C1O)C3` (stereo partly drawn) [Reb-E, 13-[(2-O-β-D-glucopyranosyl-β-D-glucopyranosyl)oxy] ent-kaur-16-en-19-oic acid-(2-O-β-D-glucopyranosyl-β-D-glucopyranosyl) ester], the “Correlation between sweetness and concentration (FIG. 1)” value in test [1] (Reb-E 20-60 ppm) is reported as “near linear correlation”. Moreover, the “Brix (average)” value in test [1] (Reb-E 20 PPM in water + 0.6% citric acid) stood at 1.2 Brix; in test [1] (Reb-E 40 PPM in water + 0.6% citric acid), 2.1 Brix; in test [1] (Reb-E 50 PPM in water + 0.6% citric acid), 2.2 Brix; in test [1] (Reb-E 60 PPM in water + 0.6% citric acid), 2.6 Brix. Also, the “Sourness detected: No (number of ratings)” value turned out to be 2 in test [2] (setting [3]), 2 in test [2] (setting [4]), 1 in test [2] (setting [5]) and 0 in test [2] (setting [6]). Moreover, the “Sourness detected: Yes (number of ratings)” value in test [2] (setting [3]) came to 10; in test [2] (setting [4]) it was 4; in test [2] (setting [5]) it was 11; in test [2] (setting [6]), 6. In test [2] (within the tested range), the “Effectiveness in covering the sourness compared to sucrose solutions” value is listed as “not as effective in covering the sourness as compared to sucrose solutions”.
Turning to `OC[C@H]1O[C@@](CO)(O[C@H]2O[C@H](CO)[C@@H](O)[C@H](O)[C@H]2O)[C@@H](O)[C@@H]1O` [Sucrose, sucrose, reference compound], the “Brix (average)” value in test [1] (sucrose 10 ×1000 PPM (1%) in water + 0.6% citric acid) worked out at 1.3 Brix; in test [1] (sucrose 20 ×1000 PPM (2%) in water + 0.6% citric acid) it was 2.6 Brix; in test [1] (sucrose 30 ×1000 PPM (3%) in water + 0.6% citric acid), 3.4 Brix; in test [1] (sucrose 40 ×1000 PPM (4%) in water + 0.6% citric acid), 5.2 Brix. Also, the “Sourness detected: No (number of ratings)” value stood at 4 in test [2] (setting [7]), 2 in test [2] (setting [8]), 5 in test [2] (setting [9]) and 2 in test [2] (setting [10]). For the same compound, the “Sourness detected: Yes (number of ratings)” value was 8 in test [2] (setting [7]), 4 in test [2] (setting [8]), 1 in test [2] (setting [9]) and 4 in test [2] (setting [10]).
